The text below walks through data of patent US20240381760A1, “Compound, Semiconductor Layer Comprising Compound and Organic Electronic Device” (Novaled GmbH, priority 2021, published 2024).

The structures appear in SMILES notation.

Type in all cases: physicochemical
The nature of series [1]: Rate onset temperature TRO in VTE source with QCM detector. The following applies: 15 K/min, less than 10−5 mbar. As to the method:
The rate onset temperature (TRO) is determined by loading 100 mg compound into a VTE source. As VTE source a point source for organic materials may be used as supplied by Kurt J. Lesker Company (www.lesker.com) or CreaPhys GmbH (http://www.creaphys.com). The VTE source is heated at a constant rate of 15 K/min at a pressure of less than 10−5 mbar and the temperature inside the source measured with a thermocouple. Evaporation of the compound is detected with a QCM detector which detects deposition of the compound on the quartz crystal of the detector. The deposition rate on the quartz crystal is measured in Angstrom per second. To determine the rate onset temperature, the deposition rate is plotted against the VTE source temperature. The rate onset is the temperature at which noticeable deposition on the QCM detector occurs. For accurate results, the VTE source is heated and cooled three time and only results from the second and third run are used to determine the rate onset temperature.
To achieve good control over the evaporation rate of an organic compound, the rate onset temperature may be in the range of 200 to 255° C. If the rate onset temperature is below 200° C. the evaporation may be too rapid and therefore difficult to control. If the rate onset temperature is above 255° C. the evaporation rate may be too low which may result in low tact time and decomposition of the organic compound in VTE source may occur due to prolonged exposure to elevated temperatures.
The rate onset temperature is an indirect measure of the volatility of a compound. The higher the rate onset temperature the lower is the volatility of a compound.

Series [2] is described as follows: Sublimation temperature Tsubl in sublimation apparatus. The following applies: 10−5 mbar. The source says:
Under nitrogen in a glovebox, 0.5 to 5 g compound are loaded into the evaporation source of a sublimation apparatus. The sublimation apparatus consist of an inner glass tube consisting of bulbs with a diameter of 3 cm which are placed inside a glass tube with a diameter of 3.5 cm. The sublimation apparatus is placed inside a tube oven (Creaphys DSU 05/2.1). The sublimation apparatus is evacuated via a membrane pump (Pfeiffer Vacuum MVP 055-3C) and a turbo pump (Pfeiffer Vacuum THM071 YP). The pressure is measured between the sublimation apparatus and the turbo pump using a pressure gauge (Pfeiffer Vacuum PKR 251). When the pressure has been reduced to 10−5 mbar, the temperature is increased in increments of 10 to 30 K till the compound starts to be deposited in the harvesting zone of the sublimation apparatus. The temperature is further increased in increments of 10 to 30 K till a sublimation rate is achieved where the compound in the source is visibly depleted over 30 min to 1 hour and a substantial amount of compound has accumulated in the harvesting zone. The sublimation temperature, also named Tsubl, is the temperature inside the sublimation apparatus at which the compound is deposited in the harvesting zone at a visible rate and is measured in degree Celsius.

A short description of series [3]: Decomposition temperature Tdec by TGA-DSC. The following applies: onset of decomposition in TGA, 10 K/min, nitrogen. Here is the method: The decomposition temperature Tdec is measured by loading a sample of 9 to 11 mg into a Mettler Toledo 100 μL aluminum pan without lid under nitrogen in a Mettler Toledo TGA-DSC 1 machine. The following heating program was used: 25° C. isothermal for 3 min; 25° C. to 600° C. with 10 K/min. The decomposition temperature was determined based on the onset of the decomposition in TGA.

Series [4] can be described thus: Solubility in benzonitrile.

As to `CC(C)(C)/C([O-])=C/C(=O)C(F)(F)C(F)(F)C(F)(F)F.CC(C)(C)/C([O-])=C/C(=O)C(F)(F)C(F)(F)C(F)(F)F.CC(C)(C)/C([O-])=C/C(=O)C(F)(F)C(F)(F)C(F)(F)F.[La+3]` [CC-6, La(fod)3], in series [1], the “Rate onset temperature TRO” value is 101 °C. Besides, the “Sublimation temperature Tsubl” value in series [2] stood at 170 °C. This compound also gave a Tdec in series [3] of over 260 °C.
As to `CC(=O)C=C(C)[O-].CC(=O)C=C(C)[O-].[Cu+2]` [CC-1, Cu(acac)2], in series [1], the “Rate onset temperature TRO” value was under 100 °C. In addition, in series [2], the “Sublimation temperature Tsubl” value was 110-120 °C. Further, in series [3], the Tdec is over 280 °C.
In the same order, the values of `N#C/C(C(=O)c1cc(C(F)(F)F)cc(C(F)(F)F)c1)=C(/[O][Cu][O]/C(=C(/C#N)C(=O)c1cc(C(F)(F)F)cc(C(F)(F)F)c1)c1cc(C(F)(F)F)cc(C(F)(F)F)c1)c1cc(C(F)(F)F)cc(C(F)(F)F)c1` [MC-1, bis(((Z)-1,3-bis(3,5-bis(trifluoromethyl)phenyl)-2-cyano-3-oxoprop-1-en-1-yl)oxy)copper] are 204 °C, 261 °C and over 319 °C.
With `C/C(C(=O)c1ccnc(C(F)(F)F)c1)=C(/[O][Cu][O]/C(=C(/C)C(=O)c1ccnc(C(F)(F)F)c1)c1ccnc(C(F)(F)F)c1)c1ccnc(C(F)(F)F)c1` [MC-3, bis(((Z)-2-methyl-3-oxo-1,3-bis(2-(trifluoromethyl)pyridin-4-yl)prop-1-en-1-yl)oxy)copper], in series [2], the “Sublimation temperature Tsubl” value is given as “decomposition”. In series [3], this compound showed a Tdec of over 300 °C. Besides, the Solubility in benzonitrile in series [4] (at 60° C. (footnote 2)) is 10 mg/ml^2).
For `CC(C)(C)C(=O)C=C([O-])C(F)(F)C(F)(F)C(F)(F)F.CC(C)(C)C(=O)C=C([O-])C(F)(F)C(F)(F)C(F)(F)F.CC(C)(C)C(=O)C=C([O-])C(F)(F)C(F)(F)C(F)(F)F.[Bi+3]` [CC-5, Bi(fod)3], the “Rate onset temperature TRO” value in series [1] is under 100 °C. For the same compound, the “Sublimation temperature Tsubl” value in series [2] is 120 °C. The compound further showed a Tdec in series [3] of over 200 °C.
`N#C/C(C(=O)C(F)(F)C(F)(F)F)=C(/[O][Cu][O]/C(=C(/C#N)C(=O)C(F)(F)C(F)(F)F)c1ccc(-c2cc(C(F)(F)F)cc(C(F)(F)F)c2)cc1)c1ccc(-c2cc(C(F)(F)F)cc(C(F)(F)F)c2)cc1` [MC-2, bis(((Z)-1-(3′,5′-bis(trifluoromethyl)-[1,1′-biphenyl]-4-yl)-2-cyano-4,4,5,5,5-pentafluoro-3-oxopent-1-en-1-yl)oxy)copper]: the “Sublimation temperature Tsubl” value in series [2] is listed as “decomposition”. The Tdec in series [3] was over 330 °C. This compound also yielded a Solubility in benzonitrile in series [4] (at 20° C.) of over 10 mg/mL.
`CC(=O)C=C([O-])C(F)(F)F.CC(=O)C=C([O-])C(F)(F)F.CC(=O)C=C([O-])C(F)(F)F.[Bi+3]` [CC-3, Bi(tfac)3]: the “Rate onset temperature TRO” value in series [1] was under 100 °C. Also, the “Sublimation temperature Tsubl” value in series [2] is “decomposition”. In series [3], this compound displayed a Tdec of over 100 °C.
Consider `CC(=O)/C=C(\[O-])C(F)(F)F.CC(=O)/C=C(\[O-])C(F)(F)F.[Cu+2]` [CC-2, Cu(tfac)2], for which the “Rate onset temperature TRO” value in series [1] was under 100 °C. In addition, the “Sublimation temperature Tsubl” value in series [2] was 95-100 °C. Also, the Tdec in series [3] is over 185 °C.
In the case of `O=C(C=C([O-])C(F)(F)F)C(F)(F)F.O=C(C=C([O-])C(F)(F)F)C(F)(F)F.O=C(C=C([O-])C(F)(F)F)C(F)(F)F.[Bi+3]` [CC-4, Bi(hfac)3], the “Rate onset temperature TRO” value in series [1] was under 100 °C. For the same compound, the “Sublimation temperature Tsubl” value in series [2] is recorded as “decomposition”.
